# Target: T1, human RIP1 kinase domain (2-375) (Homo sapiens, UniProt Q13546)
# T1 construct: Purified human RIP1 kinase domain (2-375) (50 nM); made in house; host or cells: baculovirus-infected insect cells
# T1 sequence (Q13546 2-375): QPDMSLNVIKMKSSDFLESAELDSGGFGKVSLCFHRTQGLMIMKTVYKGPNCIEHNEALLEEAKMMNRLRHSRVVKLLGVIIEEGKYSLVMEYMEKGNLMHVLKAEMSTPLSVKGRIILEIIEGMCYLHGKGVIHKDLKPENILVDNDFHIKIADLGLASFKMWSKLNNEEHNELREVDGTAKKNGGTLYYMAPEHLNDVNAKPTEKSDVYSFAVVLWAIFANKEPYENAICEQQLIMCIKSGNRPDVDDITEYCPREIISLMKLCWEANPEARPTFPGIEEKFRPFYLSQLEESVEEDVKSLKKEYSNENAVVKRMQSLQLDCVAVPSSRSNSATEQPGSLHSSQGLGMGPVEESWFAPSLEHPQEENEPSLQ
# Assay: RIP1 kinase inhibition biochemical assay (Transcreener ADP, fluorescence polarization)
# Settings: Ki app (Morrison tight-binding fit); 50 nM enzyme, 50 uM ATP, 2 hours incubation
# Experimental: RIP1 Kinase Inhibition Assays (Biochemical Assay)
# The compounds of the present invention were tested for their capacity to inhibit RIP1K activity as described below.
# The ability of the receptor interacting protein kinase (RIPK1) to catalyze the hydrolysis of adenosine-5′-triphosphate (ATP) is monitored using the Transcreener ADP (adenosine-5′-diphosphate) assay (BellBrook Labs). Purified human RIP1 kinase domain (2-375) (50 nM) derived from a baculovirus-infected insect cell expression system is incubated with test compounds for 2 hours in 50 mM Hepes buffer (pH 7.5) containing 30 mM MgCl2, 1 mM dithiothreitol, 50 uM ATP, 0.002% Brij-35, and 0.5% dimethyl sulfoxide (DMSO). Reactions are quenched by the addition of 1× Bell Brooks Stop buffer B (20 mM Hepes (ph7.5), 40 mM ethylenediaminetetraacetic acid and 0.02% Brij-35) containing an additional 12 mM EDTA and 55 ug/mL ADP2 antibody and 4 nM ADP-AlexaFluor® 633 tracer. The tracer bound to the antibody is displaced by the ADP generated during the RIP1K reaction, which causes a decrease in fluorescence polarization that is measured by laser excitation at 633 nm with a FP microplate reader M1000. Fractional activity was plotted against test article concentration. Using Genedata Screener software (Genedata; Basel, Switzerland), the data were fit to the tight-binding apparent inhibition constant (Ki^app) Morrison equation [Williams, J. W. and Morrison, J. F. (1979) The kinetics of reversible tight-binding inhibition. Methods Enzymol 63: 437-67]. The following equation was used to calculate fractional activity and Ki^app:
# [formula] where [E]T and [I]T are the total concentrations of active enzyme and test article, respectively.
# Exemplary compounds of the present invention are provided in Table 1 along with their physiochemical characterization and in vitro RIP1 kinase inhibitory activity data. “Method” in the first column of each table refers to the synthetic method(s) used to prepare each compound as shown in the Examples above. In certain examples, chiral column retention times (min) are provided for certain stereoisomers. Unless otherwise specified, the stereochemistry shown in each structure represents relative configuration of a single stereoisomer, and absolute configuration (i.e., “R” and/or “S”) is arbitrarily assigned. In some embodiments, where the Method is described to include the separation of stereoisomers, a single stereoisomer of a compound of Table 1 is provided.
row,Ki [nM],SMILES
1,7.3,"[2H]C([2H])(c1nc2n(n1)[C@H](c1ccccc1)C[C@@H]2F)C1CC1 (single isomer, unassigned) [Example 116]"
2,200,"C=C(CC)c1nc2n(n1)[C@H](c1ccccc1)C[C@@H]2F (single isomer, unassigned) [Example 97]"
3,13,"F[C@H]1C[C@@H](c2ccccc2)n2nc(-n3cc(C4CC4)cn3)nc21 (single isomer, unassigned) [Example 79]"
4,190,"CS(=O)(=O)c1cnn(-c2nc3n(n2)[C@H](c2ccccc2)C[C@@H]3F)c1 (single isomer, unassigned) [Example 80]"
5,4.9,"[2H][C@@](F)(c1nc2n(n1)[C@H](c1ccccc1)C[C@@H]2F)C1CC1 (single isomer, unassigned) [Example 111]"
6,3.1,"[2H][C@](F)(c1nc2n(n1)[C@H](c1ccccc1)C[C@@H]2F)C1CC1 (single isomer, unassigned) [Example 110]"
7,6.2,"F[C@H]1C[C@@H](c2ccccc2)n2nc(-n3ncc4ccccc43)nc21 (racemic) [Example 73, 1-[rac-(5S,7S)-7-fluoro-5-phenyl-6,7-dihydro-5H-pyrrolo[1,2-b][1,2,4]triazol-2-yl]indazole]"
8,260,"N#CCc1cnn(-c2nc3n(n2)[C@H](c2ccccc2)C[C@@H]3F)c1 (single isomer, unassigned) [Example 77]"
9,160,"F[C@H]1C[C@@H](c2ccccc2)n2nc(-n3ncc4ccncc43)nc21 (racemic) [Example 87, 1-[rac-(5S,7S)-7-fluoro-5-phenyl-6,7-dihydro-5H-pyrrolo[1,2-b][1,2,4]triazol-2-yl]pyrazolo[3,4-c]pyridine]"
10,63,"C[C@@H]1C[C@H]1c1nc2n(n1)[C@H](c1ccccc1)C[C@@H]2F (single isomer, unassigned) [Example 96]"
11,4,"Fc1ccccc1[C@@H]1C[C@H](F)c2nc(C(F)(F)C3CC3)nn21 (single isomer, unassigned) [Example 104]"
12,420,"CC(F)(F)C(O)c1nc2n(n1)[C@H](c1ccccc1)C[C@@H]2F (stereo partly drawn) [Example 117, 2,2-difluoro-1-[(5S,7S)-7-fluoro-5-phenyl-6,7-dihydro-5H-pyrrolo[1,2-b][1,2,4]triazol-2-yl]propan-1-ol]"
13,250,"N#CC1CN(c2nc3n(n2)[C@H](c2ccccc2)C[C@@H]3F)C1 (single isomer, unassigned) [Example 100]"

# The next lines start with the compound.
row,SMILES,Ki [nM]
1,"CCCc1nc2n(n1)[C@H](c1ccccc1)C[C@@H]2F (single isomer, unassigned) [Example 14]",28
2,"N#Cc1ccn(-c2nc3n(n2)[C@H](c2ccccc2)C[C@@H]3F)n1 (single isomer, unassigned) [Example 53]",280
3,"F[C@H]1C[C@@H](c2ccccc2)n2nc(-n3ccc(C(F)(F)F)n3)nc21 (single isomer, unassigned) [Example 64]",610
4,"OC(c1nc2n(n1)C(c1ccccc1)CC2F)C(F)(F)F [Example 4, cis-(5S,7S)-2,2,2-trifluoro-1-(7-fluoro-5-phenyl-6,7-dihydro-5H-pyrrolo[1,2-b][1,2,4]triazol-2-yl)ethanol]",470
5,"FC1CC(c2ccccc2)n2nc(C(F)(F)F)nc21 (racemic) [Example 12, Cis-7-fluoro-5-phenyl-2-(trifluoromethyl)-6,7-dihydro-5H-pyrrolo[1,2-b][1,2,4]triazole]",130
6,"N#Cc1cccc2c1cnn2-c1nc2n(n1)[C@H](c1ccccc1)C[C@@H]2F (single isomer, unassigned) [Example 72]",< 5
7,"F[C@H](c1nc2n(n1)[C@H](c1ccccc1)C[C@@H]2F)C12CC(C1)C2 (single isomer, unassigned) [Example 46]",840
8,"Cc1ccnn1-c1nc2n(n1)[C@H](c1ccccc1)C[C@@H]2F (single isomer, unassigned) [Example 63]",92
9,"FC1CC(c2ccccc2)n2nc(C3CC3)nc21 (racemic) [Example 11, Cis-2-cyclopropyl-7-fluoro-5-phenyl-6,7-dihydro-5H-pyrrolo[1,2-b][1,2,4]triazole]",320
10,"C=Cc1nc2n(n1)[C@H](c1ccccc1)C[C@@H]2F (single isomer, unassigned) [Example 50]",220
11,"CCc1cnn(-c2nc3n(n2)[C@H](c2ccccc2)C[C@@H]3F)c1 (single isomer, unassigned) [Example 59]",11
12,"CCCc1nc2n(n1)[C@H](c1ccccc1F)CC2 (single isomer, unassigned) [Example 26]",114
13,"CC[C@](C)(F)c1nc2n(n1)[C@H](c1ccccc1)C[C@@H]2F (single isomer, unassigned) [Example 27]",33
14,"F[C@H]1C[C@@H](c2ccccc2)n2nc(C3CC3C(F)(F)F)nc21 (stereo partly drawn) [Example 33, (5S,7S)-7-fluoro-5-phenyl-2-(2-(trifluoromethyl)cyclopropyl)-6,7-dihydro-5H-pyrrolo[1,2-b][1,2,4]triazole]",34
15,"F[C@H]1C[C@@H](c2ccccc2)n2nc(C(F)(F)C34CC(C3)C4)nc21 [Example 42, (5S,7S)-2-[1-bicyclo[1.1.1]pentanyl(difluoro)methyl]-7-fluoro-5-phenyl-6,7-dihydro-5H-pyrrolo[1,2-b][1,2,4]triazole]",6
16,"CC1(C)CC1c1nc2n(n1)[C@H](c1ccccc1)C[C@@H]2F (stereo partly drawn) [Example 30, (5S,7S)-2-(2,2-dimethylcyclopropyl)-7-fluoro-5-phenyl-6,7-dihydro-H-pyrrolo[1,2-b][1,2,4]triazole]",81
17,"C=CCc1nc2n(n1)[C@H](c1ccccc1)C[C@@H]2F (single isomer, unassigned) [Example 52]",100
18,"O=Cc1cnn(-c2nc3n(n2)[C@H](c2ccccc2)C[C@@H]3F)c1 [Example 40, 1-[(5S,7S)-7-fluoro-5-phenyl-6,7-dihydro-5H-pyrrolo[1,2-b][1,2,4]triazol-2-yl]pyrazole-4-carbaldehyde]",52
19,"F[C@H]1C[C@@H](c2ccccc2)n2nc(C(F)(F)C3CC3)nc21 (single isomer, unassigned) [Example 13]",3
20,"O[C@H](c1nc2n(n1)[C@H](c1ccccc1)C[C@@H]2F)C1CC1 (single isomer, unassigned) [Example 34]",904
21,"CC(C)OCc1nc2n(n1)[C@H](c1ccccc1)C[C@@H]2F [Example 37, (5S,7S)-7-fluoro-2-(isopropoxymethyl)-5-phenyl-6,7-dihydro-5H-pyrrolo[1,2-b][1,2,4]triazole]",3000
22,"FC(F)CCc1nc2n(n1)[C@H](c1ccccc1)C[C@@H]2F (single isomer, unassigned) [Example 29]",22
23,"CCC(C)(F)c1nc2n(n1)C(c1ccccc1)CC2F [Example 6, Cis-(5S,7S)-2-(1-fluoro-1-methyl-propyl)-7-fluoro-5-phenyl-6,7-dihydro-5H-pyrrolo[1,2-b][1,2,4]triazole]",69
24,"CCC(F)(F)c1nc2n(n1)C(c1ccccc1)CC2F (racemic) [Example 2, Cis-2-(1,1-difluoropropyl)-7-fluoro-5-phenyl-6,7-dihydro-5H-pyrrolo[1,2-b][1,2,4]triazole]",41
25,"N#CC1CC1c1nc2n(n1)[C@H](c1ccccc1)C[C@@H]2F (mixture of isomers) [Example 16, Trans-2-[(5S,7S)-7-fluoro-5-phenyl-6,7-dihydro-5H-pyrrolo[1,2-b][1,2,4]triazol-2-yl]cyclopropanecarbonitrile]",51
26,"F[C@H]1C[C@@H](c2ccccc2)n2nc(C3CC3(F)F)nc21 (stereo partly drawn) [Example 28, (5S,7S)-2-(2,2-difluorocyclopropyl)-7-fluoro-5-phenyl-6,7-dihydro-5H-pyrrolo[1,2-b][1,2,4]triazole]",70
27,"Cn1ccnc1-c1nc2n(n1)[C@H](c1ccccc1)C[C@@H]2F (single isomer, unassigned) [Example 61]",820
28,"F[C@H]1C[C@@H](c2ccccc2)n2nc(-n3ccnc3)nc21 (single isomer, unassigned) [Example 66]",890
